{
  "source": "patent US20230357447A1",
  "about": "“TUMOR ACTIVATED MULTISPECIFIC ANTIBODIES FOR TARGETING CD28 AND PD-L1 AND METHODS OF USE THEREOF” (Janux Therapeutics, Inc., priority 2022, published 2023)",
  "data": [
    {"test_system": "anti-CD28 scFv (SEQ ID NO: 9)", "test": "Octet bio-layer interferometry kinetic binding of anti-CD28 scFv to peptides", "design": "species or system human", "settings": "Octet RED96; biotinylated peptide loaded on streptavidin biosensor; anti-CD28 scFv in solution; 1:1 binding model", "experimental": "(§1) Association and dissociation signals were recorded in real time and analyzed using a 1:1 binding model within the instrument software. Analysis using a 1:1 binding model enabled the calculation of the on and off rate constants as well as affinity, KD.\nas §1", "units": {"kdis": "s⁻¹"}, "values": [
      {"molecule": "CSCC[C@@H]1NC(=O)[C@H](Cc2c[nH]cn2)NC(=O)[C@H](CC(C)C)NC(=O)[C@@H]2CCCN2C(=O)[C@@H](NC(=O)[C@H](Cc2c[nH]c3ccccc23)NC(=O)[C@H](CC(=O)O)NC(=O)[C@@H](N)CCSC)CSSC[C@@H](C(=O)N[C@@H](Cc2ccccc2)C(=O)N[C@@H](CO)C(=O)O)NC(=O)[C@H](CCC(=O)O)NC(=O)[C@H](Cc2c[nH]cn2)NC(=O)[C@H](Cc2c[nH]c3ccccc23)NC1=O", "note": "[Peptide-35]", "kdis": 0.00497},
      {"molecule": "CSCC[C@H](N)C(=O)N[C@@H](CC(=O)O)C(=O)N[C@@H](Cc1c[nH]c2ccccc12)C(=O)N[C@H]1CSSC[C@@H](C(=O)N[C@@H](Cc2ccccc2)C(=O)N[C@@H](C)C(=O)O)NC(=O)[C@H](CCC(=O)O)NC(=O)[C@H](Cc2c[nH]cn2)NC(=O)[C@H](Cc2c[nH]c3ccccc23)NC(=O)[C@H](CC(C)C)NC(=O)[C@H](CO)NC(=O)[C@H](CCCNC(=N)N)NC(=O)[C@@H]2CCCN2C1=O", "note": "[Peptide-47]", "kdis": 0.00201},
      {"molecule": "CSCC[C@H](N)C(=O)N[C@@H](CC(=O)O)C(=O)N[C@@H](Cc1c[nH]c2ccccc12)C(=O)N[C@H]1CSSC[C@@H](C(=O)N[C@@H](Cc2ccccc2)C(=O)N[C@@H](CC(N)=O)C(=O)O)NC(=O)[C@H](CCC(=O)O)NC(=O)[C@H](CC(N)=O)NC(=O)[C@H](Cc2c[nH]c3ccccc23)NC(=O)[C@H](CC(C)C)NC(=O)[C@H](Cc2ccc(O)cc2)NC(=O)[C@H](CC(C)C)NC(=O)[C@@H]2CCCN2C1=O", "note": "[Peptide-36]", "kdis": 0.00252},
      {"molecule": "CSCC[C@@H]1NC(=O)[C@H](Cc2c[nH]cn2)NC(=O)[C@H](CCCNC(=N)N)NC(=O)[C@@H]2CCCN2C(=O)[C@@H](NC(=O)[C@H](Cc2c[nH]c3ccccc23)NC(=O)[C@H](CC(=O)O)NC(=O)[C@@H](N)CCSC)CSSC[C@@H](C(=O)N[C@@H](Cc2ccccc2)C(=O)N[C@@H](C)C(=O)O)NC(=O)[C@H](Cc2ccc(O)cc2)NC(=O)[C@H](CC(N)=O)NC(=O)[C@H](Cc2c[nH]c3ccccc23)NC1=O", "note": "[Peptide-46]", "kdis": 0.00218},
      {"molecule": "CSCC[C@H](N)C(=O)N[C@@H](CC(=O)O)C(=O)N[C@@H](Cc1c[nH]c2ccccc12)C(=O)N[C@H]1CSSC[C@@H](C(=O)N[C@@H](Cc2ccccc2)C(=O)N[C@@H](C)C(=O)O)NC(=O)[C@H](Cc2c[nH]cn2)NC(=O)[C@H](C(C)C)NC(=O)[C@H](Cc2c[nH]c3ccccc23)NC(=O)[C@H](CC(C)C)NC(=O)[C@H](CC(=O)O)NC(=O)[C@H](CCCNC(=N)N)NC(=O)[C@@H]2CCCN2C1=O", "note": "[Peptide-41]", "kdis": 0.00154},
      {"molecule": "CSCC[C@@H]1NC(=O)[C@H](CC(=O)O)NC(=O)[C@H](CCCNC(=N)N)NC(=O)[C@@H]2CCCN2C(=O)[C@@H](NC(=O)[C@H](Cc2c[nH]c3ccccc23)NC(=O)[C@H](CC(=O)O)NC(=O)[C@@H](N)CCSC)CSSC[C@@H](C(=O)N[C@@H](Cc2ccccc2)C(=O)N[C@@H](C)C(=O)O)NC(=O)[C@H](CCC(=O)O)NC(=O)[C@H](CO)NC(=O)[C@H](Cc2c[nH]c3ccccc23)NC1=O", "note": "[Peptide-43]", "kdis": 0.0032},
      {"molecule": "CSCC[C@@H]1NC(=O)[C@H](CC(=O)O)NC(=O)[C@H](CCCNC(=N)N)NC(=O)[C@@H]2CCCN2C(=O)[C@@H](NC(=O)[C@H](Cc2c[nH]c3ccccc23)NC(=O)[C@H](CC(=O)O)NC(=O)[C@@H](N)CCSC)CSSC[C@@H](C(=O)N[C@@H](Cc2ccccc2)C(=O)N[C@@H](CO)C(=O)O)NC(=O)[C@H](C(C)C)NC(=O)[C@H](CO)NC(=O)[C@H](Cc2c[nH]c3ccccc23)NC1=O", "note": "[Peptide-44]", "kdis": 0.00812},
      {"molecule": "CSCC[C@H](N)C(=O)N[C@@H](CC(=O)O)C(=O)N[C@@H](Cc1c[nH]c2ccccc12)C(=O)N[C@H]1CSSC[C@@H](C(=O)N[C@@H](Cc2ccccc2)C(=O)N[C@@H](Cc2ccccc2)C(=O)O)NC(=O)[C@H](CCC(=O)O)NC(=O)[C@H](CO)NC(=O)[C@H](Cc2c[nH]c3ccccc23)NC(=O)[C@H](CC(C)C)NC(=O)[C@H](CC(=O)O)NC(=O)[C@H](CCCNC(=N)N)NC(=O)[C@@H]2CCCN2C1=O", "note": "[Peptide-40]", "kdis": 0.0031}
    ]}
  ]
}
